Measurements from US10829796B2, “Bacteria identification and antimicrobial susceptibility test” (priority 2015, dated 2020).

Experiments:
Test in all cases: Antibiotic susceptibility testing (colour of media), spiked milk
Format in all cases: cell-based
[1] = test system: Streptococcus uberis; details: for Colour of media in each well: T~16 h, 37° C., bacteria samples 6d, plate configuration #3
Experimental: (§1) Tables 36 to 38 which follow show further examples of antibiotic susceptibility testing performed in accordance with the present invention. Table 36, antibiotic susceptibility testing of Staphylococcus aureus in Mueller Hinton and Tryptic Soy Broth at pre-incubation and at between 15-24 h. Tables 37 and 38, antimicrobial susceptibility testing of Streptococcus uberis and E. coli with the addition of gram negative specific antibiotic aztreonam. Tables 38 to 49 show further examples of antibiotic susceptibility testing and the outcomes are aligned with the described inventions.

[2] = test system: Escherichia coli; details: for Colour of media in each well: 37° C., plate configuration #3
Experimental: as §1

[3] = test system: Staphylococcus aureus; details: for Colour of media: Tryptic Soy (70 ul composition 2c), bacteria sample 5c; for Colour of media in each well: T~16 h, 37° C., plate configuration #3
Experimental: as §1

[4] = bacteria sample 6d 4 μl + Composition 27 1 μl + drug solution (100 μg Aztreonam per ml water) 0.5 μl
[5] = bacteria sample 6d 8 μl + Composition 27 2 μl + drug solution (100 μg Aztreonam per ml water) 1 μl
[6] = bacteria sample 6d 20 μl + Composition 27 5 μl + drug solution (100 μg Aztreonam per ml water) 2.5 μl
[7] = bacteria sample 6d 40 μl + Composition 27 10 μl + drug solution (100 μg Aztreonam per ml water) 5 μl
[8] = bacteria sample 6d 80 μl + Composition 27 20 μl + drug solution (100 μg Aztreonam per ml water) 10 μl
[9] = bacteria sample 6d 160 μl + Composition 27 40 μl + drug solution (100 μg Aztreonam per ml water) 20 μl
[10] = bacteria sample 4d 4 μl + Composition 27 1 μl + drug solution (100 μg Aztreonam per ml water) 0.5 μl
[11] = bacteria sample 4d 8 μl + Composition 27 2 μl + drug solution (100 μg Aztreonam per ml water) 1 μl
[12] = bacteria sample 4d 20 μl + Composition 27 5 μl + drug solution (100 μg Aztreonam per ml water) 2.5 μl
[13] = bacteria sample 4d 40 μl + Composition 27 10 μl + drug solution (100 μg Aztreonam per ml water) 5 μl
[14] = bacteria sample 4d 80 μl + Composition 27 20 μl + drug solution (100 μg Aztreonam per ml water) 10 μl
[15] = bacteria sample 4d 160 μl + Composition 27 40 μl + drug solution (100 μg Aztreonam per ml water) 20 μl

With `C[C@H]1[C@H](NC(=O)/C(=N\OC(C)(C)C(=O)O)c2csc(N)n2)C(=O)N1S(=O)(=O)O` [aztreonam] the “Colour of media in each well” value ([1]; Aztreonam 0.001 μg/ml) was “yellow”, the “Colour of media in each well” value ([1]; Aztreonam 0.01 μg/ml) was “yellow” and the “Colour of media in each well” value ([1]; Aztreonam 0.1 μg/ml) was “yellow”. The “Colour of media in each well” value ([1]; Aztreonam 1 μg/ml) was “yellow”, the “Colour of media in each well” value ([1]; Aztreonam 10 μg/ml) was “yellow” and the “Colour of media after 24 hours incubation at 37° C.” value (shortened to “Colour of media … at 37° C.”) [1, 4] was “Black”. The “Colour of media prior incubation” value [1, 4] was “Red”, the “Colour of media … at 37° C.” value [1, 5] was “Black” and the “Colour of media prior incubation” value [1, 5] was “Red”. The “Colour of media … at 37° C.” value [1, 6] was “Black”, the “Colour of media prior incubation” value [1, 6] was “Red” and the “Colour of media … at 37° C.” value [1, 7] was “Black”. For the same compound, the “Colour of media prior incubation” value [1, 7] was “Red”, the “Colour of media … at 37° C.” value [1, 8] was “Black” and the “Colour of media prior incubation” value [1, 8] was “Red”. For the same compound, the “Colour of media … at 37° C.” value [1, 9] was “Black”, the “Colour of media prior incubation” value [1, 9] was “Red” and the “Colour of media in each well” value ([2]; T~16 h, bacteria samples 4c, Aztreonam 0.001 μg/ml) was “yellow”. The “Colour of media in each well” value ([2]; T~16 h, bacteria samples 4c, Aztreonam 0.01 μg/ml) was “yellow”, the “Colour of media in each well” value ([2]; T~16 h, bacteria samples 4c, Aztreonam 0.1 μg/ml) was “yellow” and the “Colour of media in each well” value ([2]; T~16 h, bacteria samples 4c, Aztreonam 1 μg/ml) was “yellow”. For the same compound, the “Colour of media in each well” value ([2]; T~16 h, bacteria samples 4c, Aztreonam 10 μg/ml) was “yellow”, the “Colour of media … at 37° C.” value [2, 10] was “Red” and the “Colour of media prior incubation” value [2, 10] was “Red”. The “Colour of media … at 37° C.” value [2, 11] was “Red”, the “Colour of media prior incubation” value [2, 11] was “Red” and the “Colour of media … at 37° C.” value [2, 12] was “Red”. The “Colour of media prior incubation” value [2, 12] was “Red”, the “Colour of media … at 37° C.” value [2, 13] was “Red” and the “Colour of media prior incubation” value [2, 13] was “Red”. For the same compound, the “Colour of media … at 37° C.” value [2, 14] was “Red”, the “Colour of media prior incubation” value [2, 14] was “Red” and the “Colour of media … at 37° C.” value [2, 15] was “Red”. The “Colour of media prior incubation” value [2, 15] was “Red”, the “Colour of media in each well” value ([2]; t~16 h, bacteria samples 4e, Aztreonam 0.001 μg/ml) was “yellow” and the “Colour of media in each well” value ([2]; t~16 h, bacteria samples 4e, Aztreonam 0.01 μg/ml) was “yellow”. The “Colour of media in each well” value ([2]; t~16 h, bacteria samples 4e, Aztreonam 0.1 μg/ml) was “yellow”, the “Colour of media in each well” value ([2]; t~16 h, bacteria samples 4e, Aztreonam 1 μg/ml) was “red” and the “Colour of media in each well” value ([2]; t~16 h, bacteria samples 4e, Aztreonam 10 μg/ml) was “red”. For the same compound, the Colour of media ([3]; T = 0 hours (pre incubation), drug 0.01 μg/ml) was “red”, the Colour of media ([3]; T = 0 hours (pre incubation), drug 0.05 μg/ml) was “red” and the Colour of media ([3]; T = 0 hours (pre incubation), drug 0.1 μg/ml) was “red”. For the same compound, the Colour of media ([3]; T = 0 hours (pre incubation), drug 0.5 μg/ml) was “red”, the Colour of media ([3]; T = 0 hours (pre incubation), drug 1 μg/ml) was “red” and the Colour of media ([3]; T = 0 hours (pre incubation), drug 5 μg/ml) was “red”. The Colour of media ([3]; T = 0 hours (pre incubation), drug 10 μg/ml) was “red”, the Colour of media ([3]; T = 0 hours (pre incubation), drug 50 μg/ml) was “red” and the Colour of media ([3]; T = 0 hours (pre incubation), drug 100 μg/ml) was “red”. The Colour of media ([3]; T = 0 hours (pre incubation), drug 500 μg/ml) was “red”, the Colour of media ([3]; T = 15-24 h at 35° C., drug 0.01 μg/ml) was “yellow” and the Colour of media ([3]; T = 15-24 h at 35° C., drug 0.05 μg/ml) was “yellow”. For the same compound, the Colour of media ([3]; T = 15-24 h at 35° C., drug 0.1 μg/ml) was “yellow”, the Colour of media ([3]; T = 15-24 h at 35° C., drug 0.5 μg/ml) was “yellow” and the Colour of media ([3]; T = 15-24 h at 35° C., drug 1 μg/ml) was “yellow”. For the same compound, the Colour of media ([3]; T = 15-24 h at 35° C., drug 5 μg/ml) was “yellow”, the Colour of media ([3]; T = 15-24 h at 35° C., drug 10 μg/ml) was “yellow” and the Colour of media ([3]; T = 15-24 h at 35° C., drug 50 μg/ml) was “yellow”. For the same compound, the Colour of media ([3]; T = 15-24 h at 35° C., drug 100 μg/ml) was “yellow”, the Colour of media ([3]; T = 15-24 h at 35° C., drug 500 μg/ml) was “yellow” and the “Colour of media in each well” value ([3]; bacteria samples 5c, Aztreonam 0.001 μg/ml) was “red”. For the same compound, the “Colour of media in each well” value ([3]; bacteria samples 5c, Aztreonam 0.01 μg/ml) was “yellow”, the “Colour of media in each well” value ([3]; bacteria samples 5c, Aztreonam 0.1 μg/ml) was “yellow” and the “Colour of media in each well” value ([3]; bacteria samples 5c, Aztreonam 1 μg/ml) was “yellow”. The “Colour of media in each well” value ([3]; bacteria samples 5c, Aztreonam 10 μg/ml) was “yellow”, the “Colour of media in each well” value ([3]; bacteria samples 5e, Aztreonam 0.001 μg/ml) was “yellow” and the “Colour of media in each well” value ([3]; bacteria samples 5e, Aztreonam 0.01 μg/ml) was “yellow”. The “Colour of media in each well” value ([3]; bacteria samples 5e, Aztreonam 0.1 μg/ml) was “yellow”, the “Colour of media in each well” value ([3]; bacteria samples 5e, Aztreonam 1 μg/ml) was “yellow” and the “Colour of media in each well” value ([3]; bacteria samples 5e, Aztreonam 10 μg/ml) was “yellow”.
